Test results as given in patent US7880007B2, “Bicyclic substituted phenyl piperidine modulators of muscarinic receptors” (Vertex Pharmaceuticals Incorporated, priority 2004, dated 2011).

What was measured:
Format in all cases: cell-based
[1] = molecular target: T1, M3 muscarinic receptor (Homo sapiens, UniProt P20309); assay: Functional mobilization of intracellular calcium (FLIPR), M3-CHO cells; conditions: for Emax: 100% efficacy is the maximum response obtained with the Carbachol control; for M3 Activity: M3-CHO cells, calcium mobilization (FLIPR)
T1 construct: expressed in transfected cells; host or cells: CHO (M3-CHO)
T1 sequence (P20309 whole entry): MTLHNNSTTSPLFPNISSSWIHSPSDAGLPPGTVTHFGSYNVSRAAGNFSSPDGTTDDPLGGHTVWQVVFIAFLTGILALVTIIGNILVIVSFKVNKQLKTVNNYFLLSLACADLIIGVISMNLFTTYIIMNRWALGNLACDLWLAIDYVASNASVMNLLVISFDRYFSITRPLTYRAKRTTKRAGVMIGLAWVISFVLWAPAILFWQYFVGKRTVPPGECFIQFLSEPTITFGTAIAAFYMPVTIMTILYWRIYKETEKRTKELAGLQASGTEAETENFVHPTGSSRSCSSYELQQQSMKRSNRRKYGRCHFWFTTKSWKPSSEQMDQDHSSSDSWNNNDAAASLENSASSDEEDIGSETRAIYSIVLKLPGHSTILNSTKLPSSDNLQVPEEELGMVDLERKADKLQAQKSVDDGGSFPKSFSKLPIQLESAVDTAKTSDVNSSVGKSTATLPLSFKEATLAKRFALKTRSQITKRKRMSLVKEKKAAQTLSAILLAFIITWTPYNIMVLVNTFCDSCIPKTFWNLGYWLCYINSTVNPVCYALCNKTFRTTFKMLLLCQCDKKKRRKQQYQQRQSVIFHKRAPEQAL
Outline: (§1)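 CHO cells expressing human M1–M4 receptors loaded with Fluo-3 AM or Calcium 3 dye (1 mM probenecid, pH 7.4); 0.5% DMSO final. Agonist mode: compound added directly; antagonist mode: 15 min pre-incubation or co-application, then carbachol at EC80. Fluorescence read 60 s on FLIPR; efficacy relative to carbachol maximum.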

[2] = molecular target: T2, M2 muscarinic receptor (Homo sapiens, UniProt P08172); assay: Functional mobilization of intracellular calcium (FLIPR), M2-CHO cells; conditions: for Emax: 100% efficacy is the maximum response obtained with the Carbachol control; for M2 Activity: M2-CHO cells, calcium mobilization (FLIPR)
T2 construct: expressed in transfected cells; host or cells: CHO (M2-CHO)
T2 sequence (P08172 1-466): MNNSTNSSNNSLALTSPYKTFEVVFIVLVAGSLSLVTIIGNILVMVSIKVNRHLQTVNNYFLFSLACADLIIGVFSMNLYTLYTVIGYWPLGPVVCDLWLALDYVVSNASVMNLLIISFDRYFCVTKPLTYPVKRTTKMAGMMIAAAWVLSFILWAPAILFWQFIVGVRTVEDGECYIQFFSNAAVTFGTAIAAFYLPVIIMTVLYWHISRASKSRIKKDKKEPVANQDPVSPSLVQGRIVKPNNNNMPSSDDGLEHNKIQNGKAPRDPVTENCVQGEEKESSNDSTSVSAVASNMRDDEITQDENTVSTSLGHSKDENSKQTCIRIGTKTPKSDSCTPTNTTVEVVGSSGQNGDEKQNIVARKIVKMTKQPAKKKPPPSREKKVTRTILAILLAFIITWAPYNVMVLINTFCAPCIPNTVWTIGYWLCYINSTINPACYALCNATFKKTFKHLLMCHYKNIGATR
Outline: as §1

[3] = molecular target: T3, M4 muscarinic receptor (Homo sapiens, UniProt P08173); assay: Functional mobilization of intracellular calcium (FLIPR), M4-CHO cells; conditions: for Emax: 100% efficacy is the maximum response obtained with the Carbachol control; for M4 Activity: M4-CHO cells, calcium mobilization (FLIPR)
T3 construct: expressed in transfected cells; host or cells: CHO (M4-CHO)
T3 sequence (P08173 1-479): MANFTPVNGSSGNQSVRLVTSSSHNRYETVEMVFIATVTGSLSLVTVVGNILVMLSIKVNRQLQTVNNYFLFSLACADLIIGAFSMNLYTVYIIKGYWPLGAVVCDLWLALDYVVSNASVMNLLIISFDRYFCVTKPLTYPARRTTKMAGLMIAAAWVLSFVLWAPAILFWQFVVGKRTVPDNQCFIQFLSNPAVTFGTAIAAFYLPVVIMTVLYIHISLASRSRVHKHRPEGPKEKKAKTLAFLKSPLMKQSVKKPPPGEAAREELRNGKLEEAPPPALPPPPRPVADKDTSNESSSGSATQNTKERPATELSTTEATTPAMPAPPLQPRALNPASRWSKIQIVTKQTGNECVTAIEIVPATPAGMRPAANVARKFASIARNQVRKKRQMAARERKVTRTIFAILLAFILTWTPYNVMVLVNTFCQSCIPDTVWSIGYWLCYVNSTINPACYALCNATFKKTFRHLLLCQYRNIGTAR
Outline: as §1

[4] = molecular target: T4, M1 muscarinic receptor (Homo sapiens, UniProt P11229); assay: Functional mobilization of intracellular calcium (FLIPR), M1-CHO cells; conditions: for Emax: 100% efficacy is the maximum response obtained with the Carbachol control; for M1 Activity: M1-CHO cells, calcium mobilization (FLIPR)
T4 construct: expressed in transfected cells; host or cells: CHO (M1-CHO)
T4 sequence (P11229 1-460): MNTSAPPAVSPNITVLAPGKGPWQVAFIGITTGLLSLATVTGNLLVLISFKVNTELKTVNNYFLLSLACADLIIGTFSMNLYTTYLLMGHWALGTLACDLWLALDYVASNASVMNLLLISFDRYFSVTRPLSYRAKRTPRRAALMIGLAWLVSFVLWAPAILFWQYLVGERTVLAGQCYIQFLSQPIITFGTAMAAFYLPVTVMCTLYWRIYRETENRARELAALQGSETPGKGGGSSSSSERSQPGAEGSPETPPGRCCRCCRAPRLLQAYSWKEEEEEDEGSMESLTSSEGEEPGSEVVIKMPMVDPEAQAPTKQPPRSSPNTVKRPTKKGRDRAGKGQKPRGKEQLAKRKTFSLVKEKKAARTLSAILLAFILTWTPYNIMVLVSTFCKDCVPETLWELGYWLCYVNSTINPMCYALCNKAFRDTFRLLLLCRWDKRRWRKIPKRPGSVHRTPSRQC
Outline: as §1

Row | Structure (SMILES) | Emax [1] | M3 Activity [1] | Emax [2] | M2 Activity [2] | Emax [3] | M4 Activity [3] | Emax [4] | M1 Activity [4]
1 | COc1ccc(Cl)cc1C1CCN(C2(C)CCOCC2)CC1 [Compound 372] | < 25% | + (activity was measured to be greater than 5.0 μM) | 25 to 100% | ++ (activity was measured to be from 1.0 μM to 5.0 μM) | 25 to 100% | +++ (activity was measured to be less than 1.0 μM) | 25 to 100% | ++ (activity was measured to be from 1.0 μM to 5.0 μM)
2 | COc1ccccc1C1(C#N)CCN(CC2CCOCC2)CC1 [Compound 373] | < 25% | + (activity was measured to be greater than 5.0 μM) | < 25% | + (activity was measured to be greater than 5.0 μM) | 25 to 100% | + (activity was measured to be greater than 5.0 μM) | < 25% | + (activity was measured to be greater than 5.0 μM)
3 | COc1ccccc1C1CCN(C2CCCC(O)CCC2)CC1 (stereo not drawn) [Compound 374] | < 25% | + (activity was measured to be greater than 5.0 μM) | < 25% | + (activity was measured to be greater than 5.0 μM) | 25 to 100% | ++ (activity was measured to be from 1.0 μM to 5.0 μM) | < 25% | + (activity was measured to be greater than 5.0 μM)
4 | OC1(c2cc(Cl)cc(Cl)c2)CCN(C2C[C@H]3CC[C@H]2C3)CC1 (stereo partly drawn) [Compound 375] | < 25% | + (activity was measured to be greater than 5.0 μM) | < 25% | + (activity was measured to be greater than 5.0 μM) | 25 to 100% | + (activity was measured to be greater than 5.0 μM) | < 25% | + (activity was measured to be greater than 5.0 μM)
5 | COc1ccc(Cl)cc1C1CCN(C2CCSCC2)CC1 [Compound 376] | < 25% | + (activity was measured to be greater than 5.0 μM) | < 25% | + (activity was measured to be greater than 5.0 μM) | 25 to 100% | +++ (activity was measured to be less than 1.0 μM) | 25 to 100% | ++ (activity was measured to be from 1.0 μM to 5.0 μM)
6 | COc1ccc(C#CC2(O)CCCCC2)cc1C1CCN([C@@H]2C[C@H]3CC[C@H]2C3)CC1 [Compound 377] | < 25% | + (activity was measured to be greater than 5.0 μM) | < 25% | + (activity was measured to be greater than 5.0 μM) | 25 to 100% | +++ (activity was measured to be less than 1.0 μM) | < 25% | + (activity was measured to be greater than 5.0 μM)
7 | Fc1ccccc1C1CCN(C2CCOCC2)CC1 [Compound 378] | < 25% | + (activity was measured to be greater than 5.0 μM) | < 25% | + (activity was measured to be greater than 5.0 μM) | 25 to 100% | +++ (activity was measured to be less than 1.0 μM) | 25 to 100% | + (activity was measured to be greater than 5.0 μM)
8 | Cc1ccc(F)cc1C1CCN([C@@H]2C[C@H]3CC[C@H]2C3)CC1 [Compound 381] | < 25% | + (activity was measured to be greater than 5.0 μM) | 25 to 100% | ++ (activity was measured to be from 1.0 μM to 5.0 μM) | 25 to 100% | +++ (activity was measured to be less than 1.0 μM) | 25 to 100% | ++ (activity was measured to be from 1.0 μM to 5.0 μM)
9 | COc1ccc(-c2ccc3c(c2)OCO3)cc1C1CCN(C2CCCCC2)CC1 [Compound 382] | < 25% | + (activity was measured to be greater than 5.0 μM) | < 25% | + (activity was measured to be greater than 5.0 μM) | 25 to 100% | + (activity was measured to be greater than 5.0 μM) | < 25% | + (activity was measured to be greater than 5.0 μM)
10 | COc1ccc(-c2ccc(C#N)cc2)cc1C1CCN([C@@H]2C[C@H]3CC[C@H]2C3)CC1 [Compound 383] | < 25% | + (activity was measured to be greater than 5.0 μM) | < 25% | + (activity was measured to be greater than 5.0 μM) | 25 to 100% | ++ (activity was measured to be from 1.0 μM to 5.0 μM) | 25 to 100% | + (activity was measured to be greater than 5.0 μM)
11 | CCC(C)Oc1ccccc1C1CCN([C@H]2C[C@H]3CC[C@H]2C3)CC1 (stereo partly drawn) [Compound 384] | < 25% | + (activity was measured to be greater than 5.0 μM) | < 25% | + (activity was measured to be greater than 5.0 μM) | 25 to 100% | ++ (activity was measured to be from 1.0 μM to 5.0 μM) | 25 to 100% | + (activity was measured to be greater than 5.0 μM)
12 | Cc1ccc(-c2ccccc2C2CCN([C@H]3C[C@H]4CC[C@H]3C4)CC2)c(C)c1 [Compound 386] | < 25% | + (activity was measured to be greater than 5.0 μM) | < 25% | + (activity was measured to be greater than 5.0 μM) | 25 to 100% | + (activity was measured to be greater than 5.0 μM) | < 25% | + (activity was measured to be greater than 5.0 μM)
13 | CCOC(=O)N1C2CCC1CC(N1CCC(c3cc(-c4ccc5c(c4)OCO5)ccc3OC)CC1)C2 (stereo not drawn) [Compound 387] | < 25% | + (activity was measured to be greater than 5.0 μM) | < 25% | + (activity was measured to be greater than 5.0 μM) | 25 to 100% | ++ (activity was measured to be from 1.0 μM to 5.0 μM) | 25 to 100% | + (activity was measured to be greater than 5.0 μM)
14 | CNC(=O)c1ccc(-c2ccc(OC)c(C3CCN([C@H]4C[C@H]5CC[C@H]4C5)CC3)c2)cc1 [Compound 388] | < 25% | + (activity was measured to be greater than 5.0 μM) | < 25% | + (activity was measured to be greater than 5.0 μM) | 25 to 100% | +++ (activity was measured to be less than 1.0 μM) | < 25% | + (activity was measured to be greater than 5.0 μM)
15 | COc1ccc(-c2ccc(C(=O)Nc3nccs3)cc2)cc1C1CCN(C2CCOCC2)CC1 [Compound 389] | < 25% | + (activity was measured to be greater than 5.0 μM) | < 25% | + (activity was measured to be greater than 5.0 μM) | < 25% | + (activity was measured to be greater than 5.0 μM) | < 25% | + (activity was measured to be greater than 5.0 μM)
